Source: US12077503B2, “Substituted cyclic amides and their use as herbicides” (FMC CORPORATION, priority 2015, dated 2024)

How the values were obtained:
Type in all cases: in vivo
[1] = test system: barnyardgrass (Echinochloa crus-galli); test: Test G Pre-Emergence Protocol; settings: Echinochloa crus-galli, pre-emergence, 312 h, evaluated after 13 days; for pest or weed control at 15.625 g/ha: 15.625 g ai/ha; for pest or weed control at 15.625 g/ha / pest or weed control at 250 g/ha: read-out: Barnyardgrass damage rating (100=total damage to plant; 0=no damage to plant); for pest or weed control at 62.5 g/ha: 62.5 g ai/ha, 100=total damage to plant, 0=no damage to plant, read-out: Barnyardgrass damage rating; for pest or weed control at 250 g/ha: 250 g ai/ha
How it was run: (§1)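 Test compound in 0.5% Tween 20 acetone/water (50:50) was applied at three rates (15.625, 62.5, 250 g/ha) to soil sown one day earlier. After 13 days plants were scored for injury, where 0 means unaffected and 100 means completely damaged.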

corn (Zea mays) [2] = test: Test G Pre-Emergence Protocol; settings: Zea mays, pre-emergence, 312 h, evaluated after 13 days; for plant injury at 15.625 g/ha: 15.625 g ai/ha; for plant injury at 15.625 g/ha / plant injury at 250 g/ha: read-out: Corn damage rating (100=total damage to plant; 0=no damage to plant); for plant injury at 62.5 g/ha: 62.5 g ai/ha, 100=total damage to plant, 0=no damage to plant, read-out: Corn damage rating; for plant injury at 250 g/ha: 250 g ai/ha
How it was run: as §1

[3] = test system: giant foxtail (Setaria faberi); test: Test G Pre-Emergence Protocol; settings: Setaria faberi, pre-emergence, 312 h, evaluated after 13 days; for pest or weed control at 15.625 g/ha: 15.625 g ai/ha; for pest or weed control at 15.625 g/ha / pest or weed control at 250 g/ha: read-out: Foxtail, Giant damage rating (100=total damage to plant; 0=no damage to plant); for pest or weed control at 62.5 g/ha: 62.5 g ai/ha, 100=total damage to plant, 0=no damage to plant, read-out: Foxtail, Giant damage rating; for pest or weed control at 250 g/ha: 250 g ai/ha
How it was run: as §1

[4] = test system: ivy-leaved morning glory (Ipomoea hederacea); test: Test G Pre-Emergence Protocol; settings: Ipomoea, pre-emergence, 312 h, evaluated after 13 days; for pest or weed control at 15.625 g/ha: 15.625 g ai/ha; for pest or weed control at 15.625 g/ha / pest or weed control at 250 g/ha: read-out: Morningglory, Ivy-leaved damage rating (100=total damage to plant; 0=no damage to plant); for pest or weed control at 62.5 g/ha: 62.5 g ai/ha, 100=total damage to plant, 0=no damage to plant, read-out: Morningglory, Ivy-leaved damage rating; for pest or weed control at 250 g/ha: 250 g ai/ha
How it was run: as §1

[5] = test system: redroot pigweed (Amaranthus retroflexus); test: Test G Pre-Emergence Protocol; settings: Amaranthus retroflexus, pre-emergence, 312 h, evaluated after 13 days; for pest or weed control at 15.625 g/ha: 15.625 g ai/ha; for pest or weed control at 15.625 g/ha / pest or weed control at 250 g/ha: read-out: Pigweed, Redroot damage rating (100=total damage to plant; 0=no damage to plant); for pest or weed control at 62.5 g/ha: 62.5 g ai/ha, 100=total damage to plant, 0=no damage to plant, read-out: Pigweed, Redroot damage rating; for pest or weed control at 250 g/ha: 250 g ai/ha
How it was run: as §1

[6] = test system: velvetleaf (Abutilon theophrasti); test: Test G Pre-Emergence Protocol; settings: Abutilon theophrasti, pre-emergence, 312 h, evaluated after 13 days; for pest or weed control at 15.625 g/ha: 15.625 g ai/ha; for pest or weed control at 15.625 g/ha / pest or weed control at 250 g/ha: read-out: Velvetleaf damage rating (100=total damage to plant; 0=no damage to plant); for pest or weed control at 62.5 g/ha: 62.5 g ai/ha, 100=total damage to plant, 0=no damage to plant, read-out: Velvetleaf damage rating; for pest or weed control at 250 g/ha: 250 g ai/ha
How it was run: as §1

[7] = test system: barnyardgrass (Echinochloa crus-galli); test: Test G Post-Emergence Protocol; settings: Echinochloa crus-galli, post-emergence, 312 h, read-out: Barnyardgrass damage rating; for pest or weed control at 15.625 g/ha: 15.625 g ai/ha, evaluated after 13 days (100=total damage to plant; 0=no damage to plant); for pest or weed control at 62.5 g/ha: 62.5 g ai/ha; for pest or weed control at 62.5 g/ha / pest or weed control at 250 g/ha: evaluated after 13 days, 100=total damage to plant, 0=no damage to plant; for pest or weed control at 250 g/ha: 250 g ai/ha
How it was run: (§2)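 Sow in soil; grow 8 d (24/16 °C, 14 h light, 65% humidity); spray 15.625/62.5/250 g/ha in acetone:water 50:50 + 0.5% Tween 20; grow on, water twice daily; score damage 0–100 at 13 d.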

corn (Zea mays) [8] = test: Test G Post-Emergence Protocol; settings: Zea mays, post-emergence, 312 h, read-out: Corn damage rating; for plant injury at 15.625 g/ha: 15.625 g ai/ha, evaluated after 13 days (100=total damage to plant; 0=no damage to plant); for plant injury at 62.5 g/ha: 62.5 g ai/ha; for plant injury at 62.5 g/ha / plant injury at 250 g/ha: evaluated after 13 days, 100=total damage to plant, 0=no damage to plant; for plant injury at 250 g/ha: 250 g ai/ha
How it was run: as §2

[9] = test system: giant foxtail (Setaria faberi); test: Test G Post-Emergence Protocol; settings: Setaria faberi, post-emergence, 312 h, read-out: Foxtail, Giant damage rating; for pest or weed control at 15.625 g/ha: 15.625 g ai/ha, evaluated after 13 days (100=total damage to plant; 0=no damage to plant); for pest or weed control at 62.5 g/ha: 62.5 g ai/ha; for pest or weed control at 62.5 g/ha / pest or weed control at 250 g/ha: evaluated after 13 days, 100=total damage to plant, 0=no damage to plant; for pest or weed control at 250 g/ha: 250 g ai/ha
How it was run: as §2

[10] = test system: ivy-leaved morning glory (Ipomoea hederacea); test: Test G Post-Emergence Protocol; settings: Ipomoea, post-emergence, 312 h, read-out: Morningglory, Ivy-leaved damage rating; for pest or weed control at 15.625 g/ha: 15.625 g ai/ha, evaluated after 13 days (100=total damage to plant; 0=no damage to plant); for pest or weed control at 62.5 g/ha: 62.5 g ai/ha; for pest or weed control at 62.5 g/ha / pest or weed control at 250 g/ha: evaluated after 13 days, 100=total damage to plant, 0=no damage to plant; for pest or weed control at 250 g/ha: 250 g ai/ha
How it was run: as §2

[11] = test system: redroot pigweed (Amaranthus retroflexus); test: Test G Post-Emergence Protocol; settings: Amaranthus retroflexus, post-emergence, 312 h, read-out: Pigweed, Redroot damage rating; for pest or weed control at 15.625 g/ha: 15.625 g ai/ha, evaluated after 13 days (100=total damage to plant; 0=no damage to plant); for pest or weed control at 62.5 g/ha: 62.5 g ai/ha; for pest or weed control at 62.5 g/ha / pest or weed control at 250 g/ha: evaluated after 13 days, 100=total damage to plant, 0=no damage to plant; for pest or weed control at 250 g/ha: 250 g ai/ha
How it was run: as §2

[12] = test system: velvetleaf (Abutilon theophrasti); test: Test G Post-Emergence Protocol; settings: Abutilon theophrasti, post-emergence, 312 h, read-out: Velvetleaf damage rating; for pest or weed control at 15.625 g/ha: 15.625 g ai/ha, evaluated after 13 days (100=total damage to plant; 0=no damage to plant); for pest or weed control at 62.5 g/ha: 62.5 g ai/ha; for pest or weed control at 62.5 g/ha / pest or weed control at 250 g/ha: evaluated after 13 days, 100=total damage to plant, 0=no damage to plant; for pest or weed control at 250 g/ha: 250 g ai/ha
How it was run: as §2

In the case of `CN1C[C@@H](c2cccc(C(F)(F)F)c2)[C@H](C(=O)Nc2cccc(F)n2)C1=O` [Compound 1817], the pest or weed control at 15.625 g/ha [1] is reported as 0%, the pest or weed control at 62.5 g/ha [1] is reported as 0% and the pest or weed control at 250 g/ha [1] is reported as 0%. The plant injury at 15.625 g/ha (corn (Zea mays) [2]) was 0%, the plant injury at 62.5 g/ha (corn (Zea mays) [2]) was 0% and the plant injury at 250 g/ha (corn (Zea mays) [2]) was 0%. For the same molecule, the pest or weed control at 15.625 g/ha [3] was 0%, the pest or weed control at 62.5 g/ha [3] was 0% and the pest or weed control at 250 g/ha [3] was 10%. For the same molecule, the pest or weed control at 15.625 g/ha [4] was 0%, the pest or weed control at 62.5 g/ha [4] was 0% and the pest or weed control at 250 g/ha [4] was 0%. The pest or weed control at 15.625 g/ha [5] was 0%, the pest or weed control at 62.5 g/ha [5] was 0% and the pest or weed control at 250 g/ha [5] was 0%. It also gave a pest or weed control at 15.625 g/ha [6] of 0%, a pest or weed control at 62.5 g/ha [6] of 0% and a pest or weed control at 250 g/ha [6] of 0%. The pest or weed control at 15.625 g/ha [7] was 0%, the pest or weed control at 62.5 g/ha [7] was 0% and the pest or weed control at 250 g/ha [7] was 0%. The plant injury at 15.625 g/ha (corn (Zea mays) [8]) was 0%, the plant injury at 62.5 g/ha (corn (Zea mays) [8]) was 0% and the plant injury at 250 g/ha (corn (Zea mays) [8]) was 0%. For the same molecule, the pest or weed control at 15.625 g/ha [9] was 0%, the pest or weed control at 62.5 g/ha [9] was 0% and the pest or weed control at 250 g/ha [9] was 0%. It also gave a pest or weed control at 15.625 g/ha [10] of 0%, a pest or weed control at 62.5 g/ha [10] of 0% and a pest or weed control at 250 g/ha [10] of 0%. For the same molecule, the pest or weed control at 15.625 g/ha [11] was 0%, the pest or weed control at 62.5 g/ha [11] was 0% and the pest or weed control at 250 g/ha [11] was 0%. It also gave a pest or weed control at 15.625 g/ha [12] of 0%, a pest or weed control at 62.5 g/ha [12] of 0% and a pest or weed control at 250 g/ha [12] of 0%.

With `CN1C[C@@H](c2cccc(C(F)(F)F)c2)[C@H](C(=O)Nc2cccnc2F)C1=O` [Compound 1823] the pest or weed control at 15.625 g/ha [1] was 0%, the pest or weed control at 62.5 g/ha [1] was 0% and the pest or weed control at 250 g/ha [1] was 0%. It also gave a plant injury at 15.625 g/ha (corn (Zea mays) [2]) of 0%, a plant injury at 62.5 g/ha (corn (Zea mays) [2]) of 0% and a plant injury at 250 g/ha (corn (Zea mays) [2]) of 0%. It also gave a pest or weed control at 15.625 g/ha [3] of 0%, a pest or weed control at 62.5 g/ha [3] of 0% and a pest or weed control at 250 g/ha [3] of 0%. For the same molecule, the pest or weed control at 15.625 g/ha [4] was 0%, the pest or weed control at 62.5 g/ha [4] was 0% and the pest or weed control at 250 g/ha [4] was 0%. For the same molecule, the pest or weed control at 15.625 g/ha [5] was 0%, the pest or weed control at 62.5 g/ha [5] was 0% and the pest or weed control at 250 g/ha [5] was 0%. The pest or weed control at 15.625 g/ha [6] was 0%, the pest or weed control at 62.5 g/ha [6] was 0% and the pest or weed control at 250 g/ha [6] was 0%. For the same molecule, the pest or weed control at 15.625 g/ha [7] was 0%, the pest or weed control at 62.5 g/ha [7] was 0% and the pest or weed control at 250 g/ha [7] was 0%. For the same molecule, the plant injury at 15.625 g/ha (corn (Zea mays) [8]) was 0%, the plant injury at 62.5 g/ha (corn (Zea mays) [8]) was 0% and the plant injury at 250 g/ha (corn (Zea mays) [8]) was 0%. For the same molecule, the pest or weed control at 15.625 g/ha [9] was 0%, the pest or weed control at 62.5 g/ha [9] was 0% and the pest or weed control at 250 g/ha [9] was 0%. For the same molecule, the pest or weed control at 15.625 g/ha [10] was 0%, the pest or weed control at 62.5 g/ha [10] was 0% and the pest or weed control at 250 g/ha [10] was 0%. The pest or weed control at 15.625 g/ha [11] was 0%, the pest or weed control at 62.5 g/ha [11] was 0% and the pest or weed control at 250 g/ha [11] was 0%. For the same molecule, the pest or weed control at 15.625 g/ha [12] was 0%, the pest or weed control at 62.5 g/ha [12] was 0% and the pest or weed control at 250 g/ha [12] was 0%.
